Assay results taken from patent publication US4767765A, “N-substituted-N-[3-(1,2,4-triazolo-[4,3-b]pyridazin-6-yl )phenyl]alkanamides, carbamates and ureas” (American Cyanamid Company, priority 1987, dated 1988).

How the values were obtained:
[1] = test system: Nonconditioned Passive Avoidance in Rats; assay: Nonconditioned passive avoidance test in rats (conflict procedure); assay type: in vivo, rat (Wistar); design: key: Active: considered active if the number of shocks received by the test group is significantly higher than the control group by the Mann-Witney U test; conditions: oral or i.p., 30 or 60 minutes
Procedure: Another test which has been used to assess anti-anxiety effects is a non-conditioned passive avoidance procedure described by J. R. Vogel, B. Beer and D. E. Clody, "A Simple and Reliable Conflict Procedure for Testing Anti-anxiety Agents", Psychopharmacologia, 21, 1-7 (1971). A conflict situation is induced in rats by a modification of this method.
Groups of 6 naive, Wistar strain rats, weighing 200-240 g each were deprived of water for 48 hours and food for 24 hours. The test compounds were administered in single or graded, oral or intraperitoneal doses, suspended in a 2% starch vehicle containing 0.5% v/v polyethylene glycol and one drop of polysorbate 80. Control animals received the vehicle alone. At 30 or 60 minutes each rat was placed in an individual plexiglass chamber. Water was available ad libitum from a tap located in the rear of the chamber. A 0.7 milliampere DC shocking current was established between the stainless steel grid floor and the tap. After 20 licks of non-shocked drinking, a shock was delivered for 2 seconds and then further shocks were delivered on a ratio of one shock for 2 seconds for every 20 licks. This was continued for a total of 3 minutes. The number of shocks taken by each rat during the 3 minute interval was recorded and compared to a control group. […]

[2] = test system: Brain-Specific Receptors of Rats; assay: Inhibition of the binding of 3H-benzodiazepine to brain-specific receptors of rats; design: species or system rat (Wistar); conditions: 3H-diazepam 1.5 nM or 3H-flunitrazepam 1.0 nM; rat cortex P2 fraction, pH 7.4, 30 minutes in ice; test concentration not given
[3] = test system: Clonic Seizures Caused by Pentylenetetrazole in Rats; assay: Protection against clonic seizures caused by pentylenetetrazole in rats; assay type: in vivo; conditions: Rattus norvegicus, oral or i.p., pentylenetetrazole 23 mg/kg i.v. at 30 or 60 minutes, read-out: % of Rats Protected
Procedure: The antianxiety and anticonvulsant properties of the novel compounds of the present invention were established in a test which indicates both anxiolytic and antiepileptic activity by the measure of protection from convulsions resulting from the administration of pentylenetetrazole. Single or graded dose levels of the test compounds were administered orally or intraperitoneally in a 2% starch vehicle, containing 0.5% v/v polyethylene glycol and one drop of Polysorbate 80 to groups of at least 4 rats. At 30 or 60 minutes, the rats were treated intravenously with pentylenetetrazole at a dose of 23 mg/kg of body wieght. This dose is estimated to cause clonic seizures in 99% of unprotected rats. It has been reported [R. T. Hill and D. H. Tedeschi, "Animal Testing and Screening Procedures in Evaluating Psychotropic Drugs" in An Introduction to Psychopharmacology, Eds. R. R. Rech and K. E. Moore, Raven Press, New York, pp 237-288 (1971,] that there is a high degree of correlation between antagonism of pentylenetetrazole seizures in rats and antianxiety and anticonvulsant effects in higher warm-blooded animals. The results of this test on representative compounds of this invention are shown in Table I.

## CCN(C(=O)OC)c1cccc(-c2ccc3nncn3n2)c1 [Ethyl[3-(1,2,4-triazolo[4,3-b]pyridazin-6-yl)phenyl]carbamic acid, methyl ester]
[1]; dose 25 mg/kg
  Results (nonconditioned passive avoidance): Active
[2]
  % Inhibition: 78%
[3]
  responders at 25 mg/kg: 100%

## CCN(C(=O)OC)c1cccc(-c2ccc3nnc(C)n3n2)c1 [Ethyl[3-(3-methyl-1,2,4-triazolo[4,3-b]pyridazin-6-yl)phenyl]carbamic acid, methyl ester]
[1]; dose 1.5 mg/kg
  Results (nonconditioned passive avoidance): Active
[2]
  % Inhibition: 60%
[3]
  responders at 3.1 mg/kg: 75%

## COC(=O)N(C)c1cccc(-c2ccc3nncn3n2)c1 [Methyl-[3-(1,2,4-triazolo[4,3-b]pyridazin 6-yl)phenyl]carbamic acid, methyl ester]
[2]
  % Inhibition: 62%
[3]
  responders at 25 mg/kg: 25%

## COC(=O)N(C)c1cccc(-c2ccc3nnc(C)n3n2)c1 [Methyl[3-(3-methyl-1,2,4-triazolo[4,3-b]pyridazin-6-yl)phenyl]carbamic acid, methyl ester]
[1]; dose 3.1 mg/kg
  Results (nonconditioned passive avoidance): Active
[2]
  % Inhibition: 62%
[3]
  responders at 25 mg/kg: 100%

## Cc1nnc2ccc(-c3cccc(N(C)C(=O)N(C)C)c3)nn12 [N,N,N'-Trimethyl-N'-[3-(3-methyl-1,2,4-triazolo[4,3-b]pyridazin-6-yl)phenyl]urea]
[1]; dose 25 mg/kg
  Results (nonconditioned passive avoidance): Active
[3]
  responders at 25 mg/kg: 50%

## Cc1nnc2ccc(-c3cccc(NC(=O)N(C)C)c3)nn12 [N,N-Dimethyl-N'-[3-(3-methyl-1,2,4-triazolo[4,3-b]pyridazin-6-yl)phenyl]urea]
[2]
  % Inhibition: 10%

## C=CCN(C(C)=O)c1cccc(-c2ccc3nncn3n2)c1 [N-2-Propenyl-N-[3-(1,2,4-triazolo[4,3-b]pyridazin-6-yl)phenyl]acetamide]
[2]
  % Inhibition: 68%

## C#CCN(C(C)=O)c1cccc(-c2ccc3nncn3n2)c1 [N-2-Propynyl-N-[3-(1,2,4-triazolo[4,3-b]pyridazin-6-yl)phenyl]acetamide]
[2]
  % Inhibition: 49%

## CC(=O)N(CC1CC1)c1cccc(-c2ccc3nnc(C)n3n2)c1 [N-(Cyclopropylmethyl)-N-[3-(3-methyl-1,2,4-triazolo[4,3-b]pyridazin-6-yl)phenyl]acetamide]
[1]; dose 6.2 mg/kg
  Results (nonconditioned passive avoidance): Active
[2]
  % Inhibition: 93%
[3]
  responders at 12.5 mg/kg: 75%

## CCN(C(=O)N(C)C)c1cccc(-c2ccc3nnc(C)n3n2)c1 [N-Ethyl-N',N'-dimethyl-N-[(3-methyl-1,2,4-triazolo[4,3-b]pyridazin-6-yl)phenyl]urea]
[1]; dose 3.1 mg/kg
  Results (nonconditioned passive avoidance): Active
[3]
  responders at 12.5 mg/kg: 75%

## CCN(C(C)=O)c1cccc(-c2ccc3nncn3n2)c1 [N-Ethyl-N-[3-(1,2,4-triazolo[4,3-b]pyridazin-6-yl)phenyl]acetamide]
[1]; dose 12.5 mg/kg
  Results (nonconditioned passive avoidance): Active
[2]
  % Inhibition: 78%
[3]
  responders at 25 mg/kg: 100%

## CCC(=O)N(CC)c1cccc(-c2ccc3nncn3n2)c1 [N-Ethyl-N-[3-(1,2,4-triazolo[4,3-b]pyridazin-6-yl)phenyl]propanamide]
[1]; dose 3.1 mg/kg
  Results (nonconditioned passive avoidance): Active
[2]
  % Inhibition: 84%
[3]
  responders at 3.1 mg/kg: 50%

## CCN(C(C)=O)c1cccc(-c2ccc3nnc(N)n3n2)c1 [N-Ethyl-N-[3-(3-amino-1,2,4-triazolo[4,3-b]pyridazin-6-yl)phenyl]acetamide]
[2]
  % Inhibition: 90%

## CCN(C(C)=O)c1cccc(-c2ccc3nnc(C)n3n2)c1 [N-Ethyl-N-[3-(3-methyl-1,2,4-triazolo[4,3-b]pyridazin-6-yl)phenyl]acetamide]
[1]; dose 0.8 mg/kg
  Results (nonconditioned passive avoidance): Active
[2]
  % Inhibition: 90%
[3]
  responders at 12.5 mg/kg: 100%

## CCC(=O)N(CC)c1cccc(-c2ccc3nnc(C)n3n2)c1 [N-Ethyl-N-[3-(3-methyl-1,2,4-triazolo[4,3-b]pyridazin-6-yl)phenyl]propanamide]
[1]; dose 3.1 mg/kg
  Results (nonconditioned passive avoidance): Active
[2]
  % Inhibition: 95%
[3]
  responders at 3.1 mg/kg: 75%

## CC(=O)N(C)c1cccc(-c2ccc3nncn3n2)c1 [N-Methyl-N-[3-(1,2,4-triazolo[4,3-b]pyridazin-6-yl)phenyl]acetamide]
[1]; dose 12.5 mg/kg
  Results (nonconditioned passive avoidance): Active
[2]
  % Inhibition: 45%
[3]
  responders at 25 mg/kg: 50%

## CCC(=O)N(C)c1cccc(-c2ccc3nncn3n2)c1 [N-Methyl-N-[3-(1,2,4-triazolo[4,3-b]pyridazin-6-yl)phenyl]propanamide]
[1]; dose 25 mg/kg
  Results (nonconditioned passive avoidance): Active
[2]
  % Inhibition: 56%
[3]
  responders at 25 mg/kg: 100%

## CC(=O)N(C)c1cccc(-c2ccc3nnc(N)n3n2)c1 [N-Methyl-N-[3-(3-amino-1,2,4-triazolo[4,3-b]pyridazin-6-yl)phenyl]acetamide]
[2]
  % Inhibition: 58%

## CC(=O)N(C)c1cccc(-c2ccc3nnc(C)n3n2)c1 [N-Methyl-N-[3-(3-methyl-1,2,4-triazolo[4,3-b]pyridazin-6-yl)phenyl]acetamid]
[1]; dose 3.1 mg/kg
  Results (nonconditioned passive avoidance): Active
[2]
  % Inhibition: 89%
[3]; dose 6.0 mg/kg
  responders at 6 mg/kg: 100%

## CCC(=O)N(C)c1cccc(-c2ccc3nnc(C)n3n2)c1 [N-Methyl-N-[3-(3-methyl-1,2,4-triazolo[4,3-b]pyridazin-6-yl)phenyl]propanamide]
[1]; dose 3.1 mg/kg
  Results (nonconditioned passive avoidance): Active
[2]
  % Inhibition: 89%
[3]
  responders at 12.5 mg/kg: 25%

## C=CCN(C(C)=O)c1cccc(-c2ccc3nnc(C)n3n2)c1 [N-[3-(3-Methyl-1,2,4-triazolo[4,3-b]pyridazin-6-yl)phenyl]-N-2-propenylacetamide]
[1]; dose 25 mg/kg
  Results (nonconditioned passive avoidance): Active
[2]
  % Inhibition: 96%
[3]; dose 6.25 mg/kg
  responders at 6.25 mg/kg: 100%

## CCCN(C(C)=O)c1cccc(-c2ccc3nnc(C)n3n2)c1 [N-[3-(3-Methyl-1,2,4-triazolo[4,3-b]pyridazin-6-yl)phenyl]-N-propylacetamide]
[2]
  % Inhibition: 93%

## CCC(=O)Nc1cccc(-c2ccc3nnc(C)n3n2)c1 [N-[3-(3-Methyl-1,2,4-triazolo[4,3-b]pyridazin-6-yl)phenyl]propanamide]
[2]
  % Inhibition: 56%

## C#CCN(C(C)=O)c1cccc(-c2ccc3nnc(C)n3n2)c1 [N-[3-(3-Methyl-1,2,4-triazolo[4,3b]pyridazin-6-yl)phenyl]-N-2-propynylacetamide]
[1]; dose 1.5 mg/kg
  Results (nonconditioned passive avoidance): Active
[2]
  % Inhibition: 90%
[3]
  responders at 3.1 mg/kg: 100%

## COC(=O)Nc1cccc(-c2ccc3nncn3n2)c1 [[3-(1,2,4-Triazolo[4,3-b]pyridazin-6-yl)phenyl]carbamic acid, methyl ester]
[2]
  % Inhibition: 18%

## COC(=O)Nc1cccc(-c2ccc3nnc(C)n3n2)c1 [[3-(3-Methyl-1,2,4-triazolo[4,3-b]pyridazin-6-yl)phenyl]carbamic acid, methyl ester]
[1]; dose 25 mg/kg
  Results (nonconditioned passive avoidance): Active
[2]
  % Inhibition: 18%
